Values joined by “and” are separate entries in the source; they are usually repeats but may differ in a detail not shown here. Equal entries are not always repeated.
System: epidermic stratum corneum cells
Assay: Tests for the ability to produce laminin 5 (culture of epidermic stratum corneum cells, sandwich ELISA)
Assay type: cell-based, human
Description: Epidermic stratum corneum cells were isolated from the human preputium and cultured in an epidermic cell growth medium (KGM) having a low calcium concentration. To this culture medium were added bovine pituitary extract and EGF. After the cells were cultured in KGM up to the fourth generation, and treated with trypsin and EDTA to suspend adherent cells. Then, the culture was filtered to remove cell aggregates and thereby obtain a homogeneous cell suspension. The cells were collected by centrifugation and resuspended in DMEM-F12 (2:1)-0.1% BSA so as to give a cell density of 8×10^4 per ml. 0.5 ml each of this cell suspension was added to 0.5 ml of the same medium containing a twofold concentration of each test sample. Using a 24-well plate, incubation was carried out at 37° C. for 24 hours. After completion of the incubation, the culture supernatant was transferred to an Eppendorf tube and centrifuged at 15,000 rpm for 5 minutes. The supernatant was transferred to a new tube and stored at−20° C. till the day for the determination of laminin 5. In order to solubilize laminin 5 in the cells and bound to the culture plastics, a tris-HCl buffer (pH 7.4) containing various surfactants was added to each well and allowed to stand at −20° C. overnight. On the following day, the mixture was ultrasonicated and frozen again. On the following day, the mixture was thawed again and centrifuged at 15,000 rpm for 5 minutes. The supernatant was transferred to a tube and stored at −20° C. till the day for the determination of laminin 5.
Laminin 5 present in the culture supernatant and the cell layer was determined by the sandwich ELISA method. A monoclonal antibody (BM165) to the laminin α3 chain of laminin 5 was attached to a solid layer of a 96-well ELISA plate. In order to measure laminin 5 in a sandwiched manner, a monoclonal antibody (6F12) to the laminin β3 chain was previously biotinized (b-6F12) and used as the other antibody. […] A sample was added to each of the wells in which a 3% gelatin-phosphate buffer solution containing b-6F12 had previously been placed. The final degree of dilution of the sample in the wells was 1/4 for the culture medium and 1/10 for the cell layer. After the antigen-antibody reaction was carried out at 37° C. for 2 hours, the wells were washed, and an avidin HRP (horseradish peroxidase) solution was added thereto and reacted for a period of 30 minutes to 1 hour. After washing, a solution of ABTS serving as a substrate for HRP was added thereto and the absorbance at 405 nm was measured with an ELISA plate reader. A calibration curve was constructed over a range of 0 to 40 ng/ml.
The yield of laminin 5 was expressed by the sum of the amount liberated into the culture medium and the amount remaining in the cell layer.

Substance | Relative yield of laminin 5 based on control with no addition (%) Mean ± Standard deviation
lysophosphatidylcholine [LPC-C18: 0] | 112.4 ± 8.0%
lysophosphatidylcholine [LPC-C18: 1] | 112.7 ± 6.7% and 147.4 ± 5.2%
lysophosphatidylcholine [LPC-C16: 0] | 104.5 ± 3.3%
lysophosphatidylcholine [LPC-C14: 0] | 100.8 ± 5.6%
lysophosphatidylcholine [LPC-C12: 0, reference compound] | 88.6 ± 5.1%
lysophosphatidylcholine [LPC-C18: 2] | 133.6 ± 1.3% and 174.0 ± 5.4%
lysophosphatidic acid [LPA-C18: 1] | 225.4 ± 12.5% and 254.0 ± 8.7%

— US6544966B1, “Agents promoting laminin production in skin cells” (Shiseido Company, Ltd., priority 1998, dated 2003)
